Measurements reported in PubChem BioAssay (NCI).
Values joined by “and” are separate entries in the source; they are usually repeats but may differ in a detail not shown here. Equal entries are not always repeated.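 Tested at 5 concentrations; 48 h exposure; 96-well plates; endpoints linearly interpolated, else capped at highest concentration. At the GI50, growth is halved. The concentration for full growth arrest is given as TGI.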

Assays:
Assay in all cases: DTP human tumour cell line panel, 48 h
[1] = test system: SR leukemia
[2] = test system: MDA-MB-435
[3] = test system: SK-MEL-28 melanoma
[4] = test system: K-562 leukemia
[5] = test system: NCI/ADR-RES ovarian
[6] = test system: HOP-62 NSCLC
[7] = test system: CAKI-1 renal
[8] = test system: SF-295 CNS
[9] = test system: OVCAR-8 ovarian
[10] = test system: OVCAR-3 ovarian

Row | Structure (SMILES) | GI50 [1] | TGI [1] | GI50 [2] | TGI [2] | GI50 [3] | TGI [3] | GI50 [4] | TGI [4] | GI50 [5] | TGI [5] | GI50 [6] | TGI [6] | GI50 [7] | TGI [7] | GI50 [8] | TGI [8] | GI50 [9] | TGI [9] | GI50 [10] | TGI [10]
1 | C[C@H](NC(=O)CCC(F)(F)F)C(=O)N[C@@H]1C(=O)N(CCO)c2ncccc2-c2ccccc21 | > 100 µM | > 100 µM | > 100 µM | > 100 µM | > 100 µM | > 100 µM | > 100 µM | > 100 µM | > 100 µM | > 100 µM | > 100 µM | > 100 µM | > 100 µM | > 100 µM | > 100 µM | > 100 µM | > 100 µM | > 100 µM | > 100 µM | > 100 µM
2 | COc1cc(C(=O)N/N=C/c2cccc([N+](=O)[O-])c2)cc(OC)c1OC | 0.558 µM | > 100 µM | 1.09 µM | 3.88 µM | 39.3 µM | > 100 µM | 0.872 µM | > 100 µM | 3.55 µM | 59.2 µM | 18.4 µM | > 100 µM | 2.53 µM | 11.9 µM | 2.75 µM | 29.2 µM | 23.6 µM | > 100 µM | 2.39 µM | 6.64 µM
3 | CCOC(=O)C1=C(c2ccccc2)N(Cc2ccccc2)C2(O)C=CC(=O)C3C(=O)N(c4ccccc4)C(=O)C132 (configuration not stated) | 1.17 µM | 4.13 µM | 1.95 µM | 4.51 µM | 1.73 µM | 3.85 µM | 2.2 µM | 8.79 µM | 2.98 µM | 17 µM | 2.67 µM | 6.56 µM | 3.08 µM | 9.71 µM | 2.9 µM | 11.5 µM | 3.09 µM | 17.5 µM | 2.11 µM | 4.33 µM
4 | CCN(CC)CCOc1ccc(C2=C(c3ccccc3)CCc3cc(OC)ccc32)cc1 | 0.518 µM |  | 1.48 µM | 3.4 µM | 1.62 µM | 3.19 µM | 2.8 µM | 15.5 µM | 3.17 µM | 12.7 µM | 3.08 µM | 9.6 µM | 2.18 µM | 5.86 µM | 1.59 µM | 3.27 µM | 3.15 µM | 10.5 µM | 5.64 µM | 15.7 µM
5 | C[C@]12CC[C@@H]3c4ccc(O)cc4CC[C@H]3[C@@H]1CC[C@@H]2NS(=O)(=O)c1ccc(-c2ccccc2)cc1 | 4.1 µM | 66.4 µM | 3.21 µM | 12.3 µM | 5.52 µM | 54.6 µM | 3.48 µM | > 100 µM | 3.87 µM | > 100 µM | 10.5 µM | > 100 µM | 3.57 µM | > 100 µM | 3.06 µM | 13.2 µM | 4.69 µM | > 100 µM | 3.32 µM | 12.7 µM
6 | CC(C)n1nc(C#Cc2cccc(NC(=O)c3cccc(C(F)(F)F)c3)c2)c2c(N)ncnc21 | 3.67 µM | > 100 µM | 1.67 µM | > 100 µM | 0.368 µM | 6.82 µM |  | > 100 µM | 2.83 µM | > 100 µM | 1.11 µM | 6.71 µM | 2.06 µM | 12.8 µM | 2.88 µM | > 100 µM | 3.15 µM | > 100 µM | 2.96 µM | 28.9 µM
7 | Nc1ccc2c(c1)CN1C(=O)c3ccccc3C1=N2 | 26.4 µM | > 125 µM |  | > 125 µM |  | > 125 µM | 52.4 µM | > 125 µM |  | > 125 µM | 45.7 µM | 23.8 µM |  | > 70.3 µM | 32.2 µM | > 116 µM |  | 115 µM | 98.8 µM | > 125 µM
8 | COc1cc(C2c3cc4c(cc3[C@@H](Nc3cccc(O)c3)C3COC(=O)[C@H]23)OCO4)cc(OC)c1O (some centres not stated) | 0.0674 µM | 0.816 µM and 4.6 µM |  | 18.8 µM | 0.746 µM | 20.7 µM | 0.802 µM | 22.2 µM |  | 21.5 µM | 0.459 µM | 4.24 µM | 0.242 µM and 0.69 µM | 4.59 µM | 0.585 µM | 8.07 µM | 0.769 µM | 11.4 µM |  | 12.6 µM
9 | C=C(CC1(CC(=C)c2ccc(C(=O)O)cc2)C(=O)N(C)C(=O)N(C)C1=O)c1ccc(C(=O)O)cc1 | 23.9 µM | > 100 µM | 51.7 µM | > 100 µM | > 100 µM | > 100 µM | 35.9 µM | > 100 µM | 63.8 µM | > 100 µM | 66.5 µM | > 100 µM | 60.3 µM | > 100 µM | > 100 µM | > 100 µM | 62.8 µM | > 100 µM | 96.6 µM | > 100 µM
10 | COc1cc(OC)cc(N2CCN(C(=O)Nc3nc4cc(F)ccc4nc3OC)CC2)c1 | < 0.018 µM and 0.0415 µM and 0.0268 µM | 20.2 µM and 24.8 µM | < 0.01 µM and 0.01 µM | 0.0215 µM and 0.0336 µM | 10.9 µM and 6.92 µM | 74.9 µM and 37 µM | 0.0184 µM and 0.0375 µM and 0.0304 µM | > 100 µM | < 0.0148 µM and 0.0274 µM and 0.012 µM | 45 µM and 28.8 µM | 0.0346 µM and 0.0573 µM and 0.051 µM | 58.7 µM and 25.2 µM | 0.0401 µM and 0.034 µM | > 100 µM | < 0.0184 µM and 0.0255 µM | 20.6 µM | 0.0437 µM and 0.0499 µM and 0.056 µM | > 100 µM | 0.0232 µM and 0.0252 µM and 0.0219 µM | 
11 | CCCOc1c2cc(COC3OC(CO)C(O)C(O)C3O)cc1Cc1cc(COC3OC(CO)C(O)C(O)C3O)cc(c1OCCC)Cc1cc(COC3OC(CO)C(O)C(O)C3O)cc(c1OCCC)Cc1cc(COC3OC(CO)C(O)C(O)C3O)cc(c1OCCC)C2 (configuration not stated) | 29.9 µM and 13.8 µM | 48.9 µM and 29.5 µM | 57.2 µM and > 100 µM and 20.6 µM | > 100 µM and 41.1 µM | > 100 µM and 14.5 µM | > 100 µM and 29 µM | 36.7 µM and 62.2 µM and 15.8 µM | > 100 µM and 32.5 µM |  | > 100 µM | > 100 µM and 29.2 µM | > 100 µM and 93.7 µM | > 100 µM and 25 µM | > 100 µM and 64.8 µM | 67.5 µM and 84.6 µM and 17.4 µM | > 100 µM and 35.7 µM | > 100 µM and 18.4 µM | > 100 µM and 42.6 µM | 53.2 µM and > 100 µM and 19.3 µM | > 100 µM and 51.7 µM
12 | O=C(NO)C(O)C(O)C(O)C(O)CO (configuration not stated) | 75.9 µM | > 100 µM | > 100 µM | > 100 µM | > 100 µM | > 100 µM | > 87.6 µM and 47.1 µM | > 100 µM | > 100 µM | > 100 µM | > 92.5 µM and 68.3 µM | > 100 µM | 31.3 µM | > 100 µM |  | > 100 µM | > 100 µM | > 100 µM | > 100 µM | > 100 µM
13 | CC(=O)Nc1ccc(-n2cnc3cc(-c4ccc(OCCN5CCCCC5)cc4)ccc32)cc1 | 0.895 µM | 3.74 µM | 5.81 µM | 10.4 µM | 4.45 µM | 9.06 µM | 0.944 µM | > 33.3 µM | 7.75 µM | 22.5 µM | 5.08 µM | 11.6 µM | 6.01 µM | 11.7 µM | 5.5 µM | 10.6 µM | 6.07 µM | 14.8 µM | 5.27 µM | 10.4 µM
14 | CC(C)(C)NCCC(O)c1cc(C(F)(F)F)nc2c(C(F)(F)F)cccc12 (configuration not stated) |  | 13.5 µM |  | 27.6 µM |  | 30.7 µM |  | 19.9 µM |  | 15.2 µM |  | 14.5 µM |  | 9.97 µM |  | 22.6 µM |  | 17.8 µM |  | 20.4 µM
15 | CC(C)(C)c1ccc(S(=O)(=O)N[C@H]2CC[C@H]3[C@@H]4CCc5cc(O)ccc5[C@H]4CC[C@]23C)cc1 | 2.17 µM | 6.04 µM | 1.79 µM | 3.33 µM | 1.71 µM | 3.18 µM | 2.46 µM | 8.64 µM | 2.23 µM | 5.21 µM | 2.07 µM | 3.98 µM | 2.28 µM | 6.26 µM | 1.66 µM | 3.16 µM | 2.02 µM | 4.59 µM | 2.09 µM | 3.95 µM
